According to paper PMC6416464 (Drug Metabolism Letters, 2018):
Read-outs that look alike come from different tables or passages of the source.

Assays:
[1] = Metabolic stability, incubation with human liver cytosol; format: in vitro ADME; settings: 1 µM test compound, 1 mg/mL protein
CYP2C19 = CYP2C19 (Homo sapiens, UniProt P33261); experiment: CYP inhibition in human liver microsomes, CYP2C19; settings: inhibitor 10 µM; HLM; NI: No Inhibitin; 10 µM
rCYP2D6 = rCYP2D6 (Homo sapiens, UniProt P10635); experiment: Metabolic stability / reaction phenotyping with recombinant human CYP2D6; settings: for % Metabolized at 30 min Incubation with Human Liver Fractions/Enzymes rCYP2D6: 1 µM test compound, 100 pmol/mL; for % Contribution of CYP Enzymes (fmCYP) in Metabolism, CYP2D6 / Predicted Microsomal Clint, CYP2D6 / rCYP Clint, CYP2D6: human, recombinant human CYP2D6, 1 µM, pH 7.4
Sequence of rCYP2D6 (P10635 whole entry): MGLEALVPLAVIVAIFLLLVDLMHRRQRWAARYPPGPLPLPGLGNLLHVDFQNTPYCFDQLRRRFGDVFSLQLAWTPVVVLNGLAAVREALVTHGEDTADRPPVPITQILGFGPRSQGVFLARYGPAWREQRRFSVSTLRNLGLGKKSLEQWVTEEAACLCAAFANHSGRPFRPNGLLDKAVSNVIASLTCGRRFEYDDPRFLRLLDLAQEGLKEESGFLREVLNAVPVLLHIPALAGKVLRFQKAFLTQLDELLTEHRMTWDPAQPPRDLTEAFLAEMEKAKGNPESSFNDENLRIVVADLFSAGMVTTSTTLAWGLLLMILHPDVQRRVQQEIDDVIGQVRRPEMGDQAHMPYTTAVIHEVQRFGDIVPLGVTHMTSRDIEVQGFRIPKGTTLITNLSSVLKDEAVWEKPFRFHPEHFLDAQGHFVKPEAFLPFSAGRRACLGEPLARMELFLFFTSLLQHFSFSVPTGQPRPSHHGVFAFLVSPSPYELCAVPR

CYP1A2 = target: T1, CYP1A2 (Homo sapiens, UniProt P05177); experiment: CYP inhibition in human liver microsomes, CYP1A2
T1 sequence (P05177 1-516): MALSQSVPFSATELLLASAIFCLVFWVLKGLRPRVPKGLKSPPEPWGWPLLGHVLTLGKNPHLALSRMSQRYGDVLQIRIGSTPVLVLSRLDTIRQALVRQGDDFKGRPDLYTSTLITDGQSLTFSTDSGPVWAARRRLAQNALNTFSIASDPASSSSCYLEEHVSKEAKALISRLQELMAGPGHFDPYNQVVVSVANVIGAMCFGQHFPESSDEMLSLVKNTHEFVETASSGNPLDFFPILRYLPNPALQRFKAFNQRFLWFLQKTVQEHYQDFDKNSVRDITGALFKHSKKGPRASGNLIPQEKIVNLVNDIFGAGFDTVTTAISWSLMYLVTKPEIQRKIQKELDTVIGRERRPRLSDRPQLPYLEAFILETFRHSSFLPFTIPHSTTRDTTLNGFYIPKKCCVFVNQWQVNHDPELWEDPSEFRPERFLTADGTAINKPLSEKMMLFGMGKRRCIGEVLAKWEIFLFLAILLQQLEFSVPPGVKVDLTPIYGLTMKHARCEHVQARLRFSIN

rCYP2C19 = rCYP2C19 (Homo sapiens, UniProt P33261); experiment: Metabolic stability / reaction phenotyping with recombinant human CYP2C19; settings: for % Metabolized at 30 min Incubation with Human Liver Fractions/Enzymes rCYP2C19: 1 µM test compound, 100 pmol/mL
Sequence of rCYP2C19 (P33261 whole entry): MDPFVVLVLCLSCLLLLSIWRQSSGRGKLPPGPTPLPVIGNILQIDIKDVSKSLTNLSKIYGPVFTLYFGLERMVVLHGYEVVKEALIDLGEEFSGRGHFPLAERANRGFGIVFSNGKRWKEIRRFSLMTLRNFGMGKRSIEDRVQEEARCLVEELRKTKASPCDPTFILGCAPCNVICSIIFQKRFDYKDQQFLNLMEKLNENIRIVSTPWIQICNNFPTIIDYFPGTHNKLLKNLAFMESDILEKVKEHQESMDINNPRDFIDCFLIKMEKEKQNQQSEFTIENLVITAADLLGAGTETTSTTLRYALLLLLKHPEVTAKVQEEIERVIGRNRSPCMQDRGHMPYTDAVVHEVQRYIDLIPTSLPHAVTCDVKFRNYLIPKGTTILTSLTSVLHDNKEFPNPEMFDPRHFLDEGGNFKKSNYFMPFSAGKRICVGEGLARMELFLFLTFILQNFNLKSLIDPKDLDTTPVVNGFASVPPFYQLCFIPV

rCYP3A4 = rCYP3A4 (Homo sapiens, UniProt P08684)
Sequence of rCYP3A4 (P08684 whole entry): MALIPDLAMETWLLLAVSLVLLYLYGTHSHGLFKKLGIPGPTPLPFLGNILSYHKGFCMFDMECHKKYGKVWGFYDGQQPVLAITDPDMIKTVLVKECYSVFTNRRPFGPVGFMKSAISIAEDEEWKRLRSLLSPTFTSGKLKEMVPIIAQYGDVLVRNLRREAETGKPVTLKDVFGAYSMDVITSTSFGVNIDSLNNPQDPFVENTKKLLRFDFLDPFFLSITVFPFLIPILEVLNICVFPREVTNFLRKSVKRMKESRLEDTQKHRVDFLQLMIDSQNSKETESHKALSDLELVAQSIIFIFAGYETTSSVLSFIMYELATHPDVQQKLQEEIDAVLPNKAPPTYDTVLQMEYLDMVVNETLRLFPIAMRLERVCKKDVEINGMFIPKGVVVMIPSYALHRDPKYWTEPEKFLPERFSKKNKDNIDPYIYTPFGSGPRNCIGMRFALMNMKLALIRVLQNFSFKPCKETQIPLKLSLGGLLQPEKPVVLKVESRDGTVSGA

CYP3A4 [2] = target: T2, CYP3A4 (Homo sapiens, UniProt P08684); experiment: in vitro; settings: microsomes, pH 7.4, % Inhibition of Control Activity CYP3A4 (substrate, testosterone)
T2 sequence (P08684 2-503): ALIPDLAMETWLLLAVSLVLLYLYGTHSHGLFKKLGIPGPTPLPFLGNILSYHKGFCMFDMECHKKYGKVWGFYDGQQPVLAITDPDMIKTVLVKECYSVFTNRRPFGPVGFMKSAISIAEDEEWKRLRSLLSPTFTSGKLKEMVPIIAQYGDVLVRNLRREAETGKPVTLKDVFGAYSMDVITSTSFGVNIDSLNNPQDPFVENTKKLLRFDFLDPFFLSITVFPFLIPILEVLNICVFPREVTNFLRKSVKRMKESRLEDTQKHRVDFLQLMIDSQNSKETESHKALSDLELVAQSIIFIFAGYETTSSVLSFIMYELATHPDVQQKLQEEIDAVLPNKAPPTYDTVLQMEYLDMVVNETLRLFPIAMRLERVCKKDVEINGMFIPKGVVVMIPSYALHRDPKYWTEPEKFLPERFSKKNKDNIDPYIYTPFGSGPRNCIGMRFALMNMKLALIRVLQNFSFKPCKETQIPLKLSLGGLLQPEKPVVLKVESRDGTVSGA

rCYP2C9 = rCYP2C9 (Homo sapiens, UniProt P11712); experiment: Metabolic stability / reaction phenotyping with recombinant human CYP2C9; settings: for % Metabolized at 30 min Incubation with Human Liver Fractions/Enzymes rCYP2C9: 1 µM test compound, 100 pmol/mL; for % Contribution of CYP Enzymes (fmCYP) in Metabolism, CYP2C9 / Predicted Microsomal Clint, CYP2C9 / rCYP Clint, CYP2C9: human, recombinant human CYP2C9, 1 µM, pH 7.4
Sequence of rCYP2C9 (P11712 whole entry): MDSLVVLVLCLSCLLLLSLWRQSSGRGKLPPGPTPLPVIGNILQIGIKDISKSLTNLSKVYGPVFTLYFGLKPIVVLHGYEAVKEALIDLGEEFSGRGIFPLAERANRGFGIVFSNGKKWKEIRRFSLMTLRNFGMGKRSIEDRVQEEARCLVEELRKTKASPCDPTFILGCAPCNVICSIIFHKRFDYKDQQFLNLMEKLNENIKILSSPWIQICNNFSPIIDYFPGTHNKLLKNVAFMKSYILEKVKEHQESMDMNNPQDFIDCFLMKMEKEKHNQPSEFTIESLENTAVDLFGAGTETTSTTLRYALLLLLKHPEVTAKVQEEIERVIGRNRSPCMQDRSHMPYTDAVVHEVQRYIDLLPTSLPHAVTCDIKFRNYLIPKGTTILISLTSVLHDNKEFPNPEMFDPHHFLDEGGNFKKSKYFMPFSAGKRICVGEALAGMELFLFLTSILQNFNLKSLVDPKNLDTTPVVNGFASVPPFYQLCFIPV

CYP3A4 [3] = target: T2, CYP3A4; experiment: in vitro; settings: microsomes, pH 7.4
CYP2C9 = CYP2C9 (Homo sapiens, UniProt P11712); experiment: CYP inhibition in human liver microsomes, CYP2C9
Sequence of CYP2C9 (P11712 whole entry): as above

rCYP2C8 = target: T3, rCYP2C8 (Homo sapiens, UniProt P10632); experiment: Metabolic stability / reaction phenotyping with recombinant human CYP2C8; settings: for % Metabolized at 30 min Incubation with Human Liver Fractions/Enzymes rCYP2C8: 1 µM test compound, 100 pmol/mL; for % Contribution of CYP Enzymes (fmCYP) in Metabolism, CYP2C8 / Predicted Microsomal Clint, CYP2C8 / rCYP Clint, CYP2C8: human, recombinant human CYP2C8, 1 µM, pH 7.4
T3 sequence (P10632 1-490): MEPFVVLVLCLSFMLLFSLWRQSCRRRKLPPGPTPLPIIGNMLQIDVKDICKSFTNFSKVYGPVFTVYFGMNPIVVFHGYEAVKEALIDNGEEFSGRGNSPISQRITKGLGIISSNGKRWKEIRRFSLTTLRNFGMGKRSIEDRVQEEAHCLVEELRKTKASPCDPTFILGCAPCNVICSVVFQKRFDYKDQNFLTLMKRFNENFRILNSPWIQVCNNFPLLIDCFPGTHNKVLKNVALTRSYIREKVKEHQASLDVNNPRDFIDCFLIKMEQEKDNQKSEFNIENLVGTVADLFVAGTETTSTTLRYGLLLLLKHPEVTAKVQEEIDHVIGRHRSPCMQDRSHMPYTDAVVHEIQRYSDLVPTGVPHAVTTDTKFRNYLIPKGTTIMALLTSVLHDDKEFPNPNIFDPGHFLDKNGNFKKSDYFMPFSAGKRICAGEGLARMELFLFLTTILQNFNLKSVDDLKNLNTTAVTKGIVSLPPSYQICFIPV

[4] = Metabolic stability, incubation with human liver microsomes; settings: 1 µM test compound, 0.5 mg/mL protein
CYP2C8 = target: T4, CYP2C8 (Homo sapiens, UniProt P10632); experiment: CYP inhibition in human liver microsomes, CYP2C8; settings: human, human liver microsomes, pH 7.4, probe paclitaxel
T4 sequence (P10632 1-490): T3 sequence (P10632 1-490)

rCYP1A2 = target: T5, rCYP1A2 (Homo sapiens, UniProt P05177); experiment: Metabolic stability / reaction phenotyping with recombinant human CYP1A2; settings: for % Metabolized at 30 min Incubation with Human Liver Fractions/Enzymes rCYP1A2: 1 µM test compound, 100 pmol/mL; for % Contribution of CYP Enzymes (fmCYP) in Metabolism, CYP1A2 / Predicted Microsomal Clint, CYP1A2 / rCYP Clint, CYP1A2: human, recombinant human CYP1A2, 1 µM, pH 7.4
T5 sequence (P05177 1-516): T1 sequence (P05177 1-516)

[5] = human, recombinant enzyme, pH 7.4
[6] = human, recombinant human CYP2C19, 1 µM, pH 7.4

Sequence of CYP2C19 (P33261 whole entry): as the sequence (P33261 whole entry) above

Row | Structure (SMILES) | % Metabolized at 30 min Incubation with Human Liver Fractions/Enzymes Cytosol [1] | % Metabolized at 30 min Incubation with Human Liver Fractions/Enzymes rCYP2D6 (rCYP2D6) | % Contribution of CYP Enzymes (fmCYP) in Metabolism, CYP2D6 (rCYP2D6) | Predicted Microsomal Clint, CYP2D6 (rCYP2D6) | rCYP Clint, CYP2D6 (rCYP2D6) | % Metabolized at 30 min Incubation with Human Liver Fractions/Enzymes rCYP2C19 (rCYP2C19) | Predicted Microsomal Clint, CYP3A4 (rCYP3A4; human, pH 7.4) | % Contribution of CYP Enzymes (fmCYP) in Metabolism, CYP3A4 (rCYP3A4; [5]) | rCYP Clint, CYP3A4 (rCYP3A4; [5]) | inhibition at 2 µM (CYP3A4 [2]) | inhibition at 10 µM (CYP3A4 [2]) | % Metabolized at 30 min Incubation with Human Liver Fractions/Enzymes rCYP2C9 (rCYP2C9) | % Contribution of CYP Enzymes (fmCYP) in Metabolism, CYP2C9 (rCYP2C9) | Predicted Microsomal Clint, CYP2C9 (rCYP2C9) | rCYP Clint, CYP2C9 (rCYP2C9) | inhibition at 2 µM (CYP3A4 [3]) | inhibition at 10 µM (CYP3A4 [3]) | % Metabolized at 30 min Incubation with Human Liver Fractions/Enzymes rCYP2C8 (rCYP2C8) | % Contribution of CYP Enzymes (fmCYP) in Metabolism, CYP2C8 (rCYP2C8) | Predicted Microsomal Clint, CYP2C8 (rCYP2C8) | other results
1 | CC(C)(O)c1ccccc1CC[C@@H](SCC1(CC(=O)O)CC1)c1cccc(/C=C/c2ccc3ccc(Cl)cc3n2)c1 [Montelukast, montelukast, reference compound] | 10.13% | 7.46% | 0.64% | 0.258 µL/min/mg Protein | 0.026 µL/min/pmol | 0.00% | 19.054 µL/min/mg Protein | 47.07% | 0.172 µL/min/pmol | 0.79% | 11.2% | 10.85% | 9.08% | 3.675 µL/min/mg Protein | 0.038 µL/min/pmol | 20% | 48% | 52.29% | 39.00% | 15.789 µL/min/mg Protein | % Inhibition of Control Activity CYP2C19 (CYP2C19): 22.70%; % Inhibition of Control Activity CYP1A2 (CYP1A2; inhibitor 10 µM, HLM, NI: No Inhibitin, 10 µM): 24.96%; % Metabolized at 30 min Incubation with Human Liver Fractions/Enzymes rCYP3A4 (rCYP3A4; human, recombinant enzyme, 0.5 h, pH 7.4): 40.25%; IC50 (CYP2C9): 1340 nM; rCYP Clint, CYP2C8 (rCYP2C8): 0.247 µL/min/pmol; % Metabolized at 30 min Incubation with Human Liver Fractions/Enzymes HLM [4]: 25.71%; inhibition at 2 µM (CYP2C8): 93.7%; inhibition at 10 µM (CYP2C8): 97.3%; % Metabolized at 30 min Incubation with Human Liver Fractions/Enzymes rCYP1A2 (rCYP1A2): 9.37%; % Contribution of CYP Enzymes (fmCYP) in Metabolism, CYP1A2 (rCYP1A2): 4.21%; Predicted Microsomal Clint, CYP1A2 (rCYP1A2): 1.705 µL/min/mg Protein; rCYP Clint, CYP1A2 (rCYP1A2): 0.033 µL/min/pmol
2 | CNC(=O)Oc1cc(C)c(SC)c(C)c1 [Methiocarb, methiocarb] | 6.93% | 99.43% | 7.46% | 17.239 µL/min/mg Protein | 1.724 µL/min/pmol | 19.42% | 188.076 µL/min/mg Protein | 81.34% | 1.694 µL/min/pmol | 8.34% | 29.7% | 6.50% | 0.93% | 2.151 µL/min/mg Protein | 0.022 µL/min/pmol | < 0% | < 0% | 41.44% | 4.94% | 11.416 µL/min/mg Protein | IC50 (CYP1A2): 710 nM; % Contribution of CYP Enzymes (fmCYP) in Metabolism, CYP2C19 (rCYP2C19; [6]): 0.59%; Predicted Microsomal Clint, CYP2C19 (rCYP2C19; [6]): 1.367 µL/min/mg Protein; rCYP Clint, CYP2C19 (rCYP2C19; [6]): 0.072 µL/min/pmol; % Metabolized at 30 min Incubation with Human Liver Fractions/Enzymes rCYP3A4 (rCYP3A4; 1 µM test compound, 100 pmol/mL, 30 min): 98.38%; rCYP Clint, CYP2C8 (rCYP2C8): 0.178 µL/min/pmol; % Metabolized at 30 min Incubation with Human Liver Fractions/Enzymes HLM [4]: 78.39%; inhibition at 2 µM (CYP2C8): < 0%; inhibition at 10 µM (CYP2C8): < 0%; % Metabolized at 30 min Incubation with Human Liver Fractions/Enzymes rCYP1A2 (rCYP1A2): 46.94%; % Contribution of CYP Enzymes (fmCYP) in Metabolism, CYP1A2 (rCYP1A2): 4.75%; Predicted Microsomal Clint, CYP1A2 (rCYP1A2): 10.987 µL/min/mg Protein; rCYP Clint, CYP1A2 (rCYP1A2): 0.211 µL/min/pmol
